Assay results taken from article PMC8474110 (Journal of Medicinal Chemistry, 2021).
Where two headings read alike, the source gives them in different places.

How the values were obtained:
[1] = tested on: HREC stimulated with VEGF-A; experiment: Tube formation assay (Matrigel) in HREC stimulated with VEGF-A; format: cell-based, human; details: 24 h; for effect on VEGF-A-stimulated tube formation in HREC: 5 μM
Description: To further explore effects on angiogenesis, tube formation assays with HREC were evaluated. Following seeding onto basement membranelike Matrigel and stimulation for 24 h with VEGF-A (80 ng/mL), HREC organized into networks of tubular structures mimicking capillary formation in neoangiogenesis (Figure 4A).
The tube formation assay was analyzed in vitro in BD Matrigel, following the manufacturer’s instructions (BD, Bedford). In brief, 96-well plates were coated with 50 μL of Matrigel and allowed to solidify at 37 °C for 2 h. HREC were seeded at 1.5 × 10^4 cells/well in 100 μL of medium with (±)-1, (+)-1, or (−)-1 in the presence or absence of VEGF-A (80 ng/mL), AC927, and PTZ. After […] of incubation, tubelike structures were photographed at 10× magnification using an inverted microscope (Leica DM IRB) equipped with a CCD camera. Tube formations were quantified with ImageJ software (NIH, Bethesda, MD).

[2] = Enzymatic stability (kinetics of enzymatic hydrolysis) in rat plasma; format: in vitro ADME; details: for half-life at 3.8 µM: plasma (80%), pH 7.4, read-out: t1/2, enzymatic stability (converted)
Description: Enzymatic stability studies in rat and human plasma were performed for both the racemate and its enantiomers (Table 1). […] Considering the high stability of (±)-1 and its enantiomers in simulated physiological fluids and human plasma, these compounds could reach the target site without undergoing esterase metabolism.
Human plasma was purchased from 3H Biomedical (Uppsala, Sweden, Europe). Plasma aliquots (4 mL) were diluted with 0.02 M PBS (pH 7.4) to obtain a final volume of 5 mL containing 80% plasma. Studies were performed at 37 ± 0.5 °C using a shaking bath. Each experiment was started by adding a 10^–4 M drug stock solution (200 μL) to the preheated plasma. Hundred microliters of the thermostated medium was taken at various times, treated with cold methanol (500 μL) to precipitate plasma proteins, and centrifugated (5 min at 5000g). The supernatant was analyzed by HPLC to quantify the amount of the residual intact compound.

[3] = tested on: HREC stimulated with VEGF-A; experiment: Crystal violet proliferation assay in HREC with or without VEGF-A; format: cell-based, human; details: 24 h; for effect of coincubation with AC927 on the compound's anti-VEGF-A activity on HREC proliferation: 5 μM compound + 2 μM AC927 (σ2 antagonist); for effect of coincubation with AC927 on the compound's anti-VEGF-A activity on HREC proliferation / effect of coincubation with PTZ on the compound's anti-VEGF-A activity on HREC proliferation / effect on VEGF-A-mediated HREC proliferation: 80 ng/mL VEGF-A; for effect of coincubation with PTZ on the compound's anti-VEGF-A activity on HREC proliferation: 5 μM compound + 2 μM PTZ (σ1 agonist); for effect on VEGF-A-mediated HREC proliferation / effect on HREC proliferation under basal conditions: 5 μM; for effect on HREC proliferation under basal conditions: no VEGF-A
Description: As expected, VEGF-A exerted a proangiogenic effect by increasing cell proliferation by about 45% (at 24 h) with respect to the untreated control (Figure 2).
(§1) Control cells received an equal volume of vehicle (DMSO). At the end of the treatment, each well was washed with phosphate-buffered saline (PBS). Following this, the cells were fixed (in 4% paraformaldehyde) and stained with crystal violet solution (0.5% in 20% methanol for HREC or 1% aqueous solution for 92-1 cells). Subsequently, the plate was washed with water and left to dry. Crystal violet staining was evaluated by measuring the absorbance at 570 nm or 590 nm, after crystal violet extraction with 10% acetic acid (at room temperature for 10 min), with a microplate reader with the plate reader (Synergy 2-BioTek). For quantification, each assay was carried out in triplicate.

human UM 92-1 cells = experiment: Crystal violet proliferation assay in human UM 92-1 cells; format: cell-based; details: for IC50: 48 h
Description: Then, actions on cell proliferation were examined by crystal violet staining (Figure 6).
as §1, with “HREC and human 92-1 cell (seeded 4 × 10^3 and grown for 24 h at optimum culture conditions) proliferation was measured using crystal violet staining after treatment in 96-well plates with the indicated concentrations of chemicals for an additional 48 h. Control” for “Control”

[4] = tested on: human 92-1 uveal melanoma cells; experiment: Wound healing assay (cell migration) in human 92-1 uveal melanoma cells; format: cell-based; details: for effect on 92-1 cell migration: 3 μM, over 48 h time courses; for IC50: Homo sapiens, read-out: IC50, inhibition of 92-1 cell migration (wound healing)
Description: Finally, tumor cell migration was explored with the wound healing assay (Figure 7). (±)-1, (+)-1, and (−)-1 inhibited 92-1 cell migration over 48 h time courses (Figure 7A). […] In particular, the derivative (−)-1 exerted the highest antimigratory effects compared to the (+)-enantiomer (>10-fold) or the racemic mixture (±)-1 (>40-fold; Figure 7B). These actions closely mirror those observed in HREC migration (Figure 3) and could similarly reflect signaling through σ receptors by the HP-mII molecular component of the prodrugs, without VPA/HDAC involvement. Indeed, their differential potencies in motility inhibition (Figure 7) are aligned with increasing binding affinities for σ2 receptors from (±)-1 to (+)-1 and (−)-1 (Table 2), thus implicating the stereochemical diversity of HP-mII enantiomeric components as an underlying molecular mechanism able to regulate cell migration.
HREC and 92-1 cells (2.5 × 10^5 cells/well) were seeded into 24 well plates and grown to confluency. Confluent cell monolayers were scratched with a p200 pipet tip to create 1 mm wide wounds. After washing (three times) with PBS to remove cell debris, wounded monolayers were incubated for 48 h (37 °C) in the complete medium in the presence of the indicated treatments. HREC were treated for 48 h in the presence of (±)-1, (+)-1, or (−)-1 with or without VEGF-A (80 ng/mL), AC927, and PTZ. 92-1 cells were treated for 48 h in the presence of (±)-1, (+)-1, or (−)-1. Wound closure was monitored by photographs at 40X using a phase-contrast microscope in each culture condition and at each time point (0, 24, and 48 h for HREC and 0, 6, 24, 30, and 48 h for 92-1 cells). The numbers of cells toward the wounds were counted using ImageJ software (ImageJ 1.50e, National Institutes of Health, NIH, Bethesda, MD) and were quantified by measuring the distance traveled over time by both cell fronts into the wound area.

[5] = Homo sapiens, read-out: IC50 on human 92-1 cells (proliferation, crystal violet), 48 h
[6] = read-out: IC50 on human 92-1 cells (proliferation, crystal violet)

SMILES | effect on VEGF-A-stimulated tube formation in HREC ([1]; 80 ng/mL VEGF-A) | Kobs, enzymatic stability [2] [h^–1] | half-life at 3.8 µM [2] [min] | effect of coincubation with AC927 on the compound's anti-VEGF-A activity on HREC proliferation [3] | effect of coincubation with PTZ on the compound's anti-VEGF-A activity on HREC proliferation [3] | effect on VEGF-A-mediated HREC proliferation [3] | effect on HREC proliferation under basal conditions [3] | IC50 (human UM 92-1 cells; [5]) [µM] | IC50 (human UM 92-1 cells; [6]) [µM] | effect on 92-1 cell migration [4] | antimigratory effect compared to the (+)-enantiomer ([4]; 92-1 cells, 48 h) [fold] | antimigratory effect compared to the racemic mixture (±)-1 ([4]; 92-1 cells, 48 h) [fold] | IC50 ([4]; 48 h) [µM] | effect of AC927 on the compound's action on VEGF-A-stimulated tube formation ([1]; 5 μM compound + 2 μM AC927, 80 ng/mL VEGF-A) | effect of PTZ on the compound's action on VEGF-A-stimulated tube formation ([1]; 5 μM compound + 2 μM PTZ, 80 ng/mL VEGF-A) | effect of PTZ, AC927 or their combination on the antiproliferative effects of the compound in 92-1 cells (human UM 92-1 cells; 5 μM compound, PTZ 2 μM, AC927 2 μM) | antiproliferative effect with respect to VPA alone (human UM 92-1 cells; UM 92-1 cells)
CCCC(CCC)C(=O)O[C@@H](CCCN1CCC(O)(c2ccc(Cl)cc2)CC1)c1ccc(F)cc1 [(−)-1] | blocked | 2.15 ± 0.03 | 19.3 ± 0.6 | did not alter | did not alter | completely prevented | did not induce significant changes | 4.45 | 4.4 ± 0.68 | inhibited | > 10 | > 40 | 0.09 | – | – | – | –
CCCC(CCC)C(=O)OC(CCCN1CCC(O)(c2ccc(Cl)cc2)CC1)c1ccc(F)cc1 (racemic) [(±)-1] | blocked | 2.96 ± 0.01 | 14 ± 0.18 | – | partially counteracted | completely prevented | did not induce significant changes | 5.46 | 5.5 ± 0.74 | inhibited | – | – | 4.22 | partially and equally blocked | partially and equally blocked | did not perturb | about 400 fold
CCCC(CCC)C(=O)O[C@H](CCCN1CCC(O)(c2ccc(Cl)cc2)CC1)c1ccc(F)cc1 [(+)-1] | blocked | 1.60 ± 0.005 | 26.04 ± 0.12 | did not alter | did not alter | completely prevented | did not induce significant changes | 4.95 | 4.9 ± 0.58 | inhibited | – | – | 1.15 | – | – | – | –
